The subject of assay [1] is normal human keratinocytes. Kind of assay: Keratinocyte proliferation measured by DNA content (monolayer cultures). In kind it is cell-based. Here is the method:
The cells used in these studies are normal human keratinocytes and pig skin organ cultures. The normal human keratinocytes isolated from neonatal foreskins by trypsin treatment were growth in DME medium/5% fetal calf serum in the presence of mitomycin C treated 3T3 mouse fibroblasts of establishing dividing colonies. Keratinocytes were grown under these conditions until their third passage. For the experiments, third passage keratinocytes were plated into a serum-free keratincoyte growth medium (KGM; obtained form Clonetics, San Diego, Calif.) containing 0.15 mM calcium. Neonatal human fibroblasts were obtained from Clonetics and grown in Dulbecco's Minimum essential medium (DMEM) containing 10% fetal calf serum. Experiments were conducted in cells between passage numbers 4-10. Keratinocytes were plated in the middle 60 wells of 96 well plates (3000 cells/well). 24 hrs later, the plates were placed on top, in the middle of the magnet (bar or Bioflex) and grown for a further 4 days until the cells become 70-80% confluent. Medium was changed every 2 or 3 days. Control plates were placed on top of a nonmagnetic metal plate and the test plates were placed on top of the bar magnet (North or South side up) or in the middle of the Bioflex magnet. In some studies where the growth of cells were measured as a function of magnetic force, plates were placed on top of one another on top of the magnet such that the bottom plate is closest to the magnet (highest force) and the top plate is the furthest away from the magnet (lowest magnetic force). Studies to assess the effects of North and South magnets were carried out in different incubators to avoid the influence of one magnet on the other. After 4 days of growth, the plates were removed from the incubator, washed 2 times with phosphate buffered saline (PBS), and incubated with 100 ul of a bisbenzimide H 33258 solution (obtained from Calbiochem—stock solution was prepared at 1 mg/ml distilled water,'stored in dark at 4° C. for no longer than 1 week). After 15 min of incubation in the dark at room temperature, fluorescence was measured on a Millipore Cytofluor 2000b (ex/em=360/460 nm). The DNA content was calculated using a standard of calf thymus DNA and expressed as ug/well or as % of control wells which were not exposed to magnets. In all the studies using monolayer cultures mean+/−standard deviation of at least 24 different wells were used to calculate statistical significance using Students t-test. Example 3 evaluated the synergy between lactic acid and magnetic field in inducing the proliferation of keratinocytes. In this study, using in vitro keratinocyte cultures, 2 mM lactic acid increased proliferation by 5.4%. This increase was not statistically significant. […]

A further assay has as its system pig skin dermis. Kind of assay: DNA synthesis (3H-thymidine) of pig skin organ cultures, dermis. In kind it is cell-based. On the procedure: Freshly excised 2-3 week old piglet skins were obtained from Buckshire Farms, Pa. The pig skins were washed exhaustively first with soap and then with 10× antibiotic containing medium (penicillin, streptomycin). The pig skins were then dermatomed at 200 microns thickness. Seven (7) mm punch biopsies were made from these washed pig skins. The biopsies are then washed again with the 10× antibiotic medium and finally with normal DMEM (2 washes). Three (3) biopsies were incubated in each transwell plates, epidermal side up, with 1 ml of serum free DMEM fed from the bottom of the plates. Experiments were started 3 days after the biopsies were equilibrated under these conditions. Three (3) days after equilibrating the pig skin organ cultures prepared as described above, the medium was removed, 1 ml of fresh medium was added, and the wells were treated with different concentrations of lactic acid by adding from a 100 fold concentrated stock in water, directly into the medium. Simultaneous with the addition of lactic acid, selected cultures were also exposed to the South or North pole of a bar magnet or to the Bioflex magnet. The magnets were placed on top of the culture dish to expose the epidermis directly (the organ culture is carried out with the epidermis side on top). Three (3) days later, medium was changed, lactic acid was re-added, and 10 uCi ^3H-thymidine was added to each well. Plates were incubated for a further 24 hrs. At the end of the incubation period, biopsies were removed, washed in PBS for 1 hr with shaking, and incubated overnight in 10 ml of 2M sodium bromide with shaking to split the epidermis from the dermis. The biopsies were washed with PBS, and the epidermis was peeled off from dermis carefully using a scalpel. The epidermis and dermis were digested with 1 ml of 0.5N NaOH overnight at 50 C, 200 ul was used for counting the radioactivity. The DNA synthesis rate was calculated as cpm/7 mm punch biopsy for dermis or epidermis and in some experiments expressed also as % of controls. All organ culture experiments were conducted with at least 6 replicates, and the mean+/−standard deviation was calculated for statistical analysis using Students t-test. In example 7, dermal proliferation was measured as a function of lactic acid and magnetic pole treatment.

The mark [2] stands for this setting: Example 7, dermis, LA + North pole.
Where [3] appears, read: Example 7, dermis, LA + South pole.

As to `CC(O)C(=O)O` (stereo not drawn) [LA, lactic acid], the “DNA content, Average” value in assay [1] (2 mM lactic acid + BIOflex magnet) is 277; in assay [1] (2 mM lactic acid, no magnet) it was 254. Further, in assay [1] (2 mM lactic acid in the presence of BIOflex magnet, statistically significant), the “stimulation of keratinocyte proliferation” value is given as 15%. Moreover, the “increase in keratinocyte proliferation” value in assay [1] (2 mM lactic acid, no magnet, not statistically significant) is 5.4%. The “DNA SYNTHESIS (CPM/BIOPSY) MEAN +/- STD” value with pig skin dermis (Example 7, dermis, 0.2 mM LA, no magnet) was 15306 +/− 4656 CPM/BIOPSY; in the assay with pig skin dermis (setting [2]), 16886 +/− 2227 CPM/BIOPSY; with pig skin dermis (setting [3]), 17244 +/− 4259 CPM/BIOPSY. In addition, the “DNA synthesis AS % OF CONTROL” value with pig skin dermis (setting [2]) turned out to be 178%; in the assay with pig skin dermis (setting [3]) it was 182%. Also, the “synergy of magnet with lactic acid in the dermis” value with pig skin dermis (Example 7, combinations of magnet with lactic acid) is recorded as “no synergy”. In the assay with pig skin dermis (Example 7, lactic acid alone), the “effect on dermal proliferation” value is on record as “significant stimulation”. The activity at 200 µM in the assay with pig skin dermis (Sus scrofa, Example 7, dermis, 0.2 mM LA, no magnet, read-out: DNA synthesis AS % OF CONTROL) was determined as 162%.

These data come from patent publication US6761896B1, “Skin cosmetic care system and method” (Unilever Home & Personal Care USA, division of Conopco, Inc., priority 1998, dated 2004).
